Structures can show the parent of a compound that is named as a salt.

For orientation: viability means a read-out of living cells in per cent, often relative to untreated cells. The EC50 is the concentration at which the effect is half-maximal.

Experiment [1] has as its system MOLM-14 (acute myeloid leukemia) cell line. Description: CellTiter-Glo luminescent cell viability assay, MOLM-14. The experiment is classed as cell-based, human. The conditions noted are these: Homo sapiens; for viability at 4 µM: MOLM-14, compound at 4 μM; for viability at 4 µM / viability at 10 µM: 72 h; for viability at 10 µM: MOLM-14, compound at 10 μM; for EC50: MOLM-14 cell line, 72 h incubation, CellTiter-Glo, read-out: EC50, growth inhibition of MOLM-14. The procedure, abridged:
(§1)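 In a 72 h viability assay, compound-treated cells were compared against matched H2O or DMSO diluent controls by luminescence, points in at least duplicate.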

The test system of experiment [2] is A375 (malignant melanoma) cell line. Description: CellTiter-Glo luminescent cell viability assay, A375. The experiment is classed as cell-based, human. The conditions noted are these: Homo sapiens, A-375; for viability at 4 µM: A375, compound at 4 μM; for viability at 4 µM / viability at 10 µM: 72 h; for viability at 10 µM: A375, compound at 10 μM; for EC50: A375 cell line, 72 h incubation, CellTiter-Glo, read-out: EC50, growth inhibition of A375. The method, boiled down: as §1
A general note: ATP-based viability assays read luminescence as a measure of living cells.

The subject of experiment [3] is HCT-116 (colorectal carcinoma) cell line. Description: CellTiter-Glo luminescent cell viability assay, HCT-116. The experiment is classed as cell-based, human. The conditions noted are these: Homo sapiens; for viability at 4 µM: HCT-116, compound at 4 μM; for viability at 4 µM / viability at 10 µM: 72 h; for viability at 10 µM: HCT-116, compound at 10 μM; for EC50: HCT-116 cell line, 72 h incubation, CellTiter-Glo, read-out: EC50, growth inhibition of HCT-116. The procedure, abridged: as §1

The test system of experiment [4] is Huh7 (hepatocellular carcinoma) cell line. The experiment in a line: CellTiter-Glo luminescent cell viability assay, Huh7. The experiment is classed as cell-based, human. To be noted: Homo sapiens, Huh-7; for viability at 4 µM: Huh7, compound at 4 μM; for viability at 4 µM / viability at 10 µM: 72 h; for viability at 10 µM: Huh7, compound at 10 μM; for EC50: Huh7 cell line, 72 h incubation, CellTiter-Glo, read-out: EC50, growth inhibition of Huh7. The procedure, abridged:
as §1

Experiment [5] has as its system 786-O (renal adenocarcinoma) cell line. The experiment in a line: CellTiter-Glo luminescent cell viability assay, 786-O. It is filed as cell-based, human. The conditions noted are these: Homo sapiens, 786-0; for viability at 4 µM / viability at 10 µM: 786-O, 72 h; for viability at 4 µM: compound at 4 μM; for viability at 10 µM: compound at 10 μM; for EC50: 786-O cell line, 72 h incubation, CellTiter-Glo, read-out: EC50, growth inhibition of 786-O. The method, boiled down: as §1

The subject of experiment [6] is HepG2 (hepatocellular carcinoma) cell line. Description: CellTiter-Glo luminescent cell viability assay, HepG2. The conditions noted are these: Homo sapiens; for viability at 4 µM / viability at 10 µM: HepG2, HepG, 72 h; for viability at 4 µM: compound at 4 μM; for viability at 10 µM: compound at 10 μM; for EC50: HepG2 cell line, 72 h incubation, CellTiter-Glo, read-out: EC50, growth inhibition of HepG2. It is filed as cell-based, human. The method, boiled down: as §1

Experiment [7] concerns PANC-1 (prancreatic carcinoma) cell line. The experiment in a line: CellTiter-Glo luminescent cell viability assay, PANC-1. It is filed as cell-based. The conditions noted are these: Homo sapiens, 72 h, % of signal of diluent-treated cultures. The method, then:
All cell lines were maintained in medium containing 1% penicillin-streptomycin (Dutscher, P06-07100) and 10% Fetal Bovine Serum (Hyclone Dutscher, RZK35922) cultured at 37° C. with 5% CO2. HepG2 (hepatocellular carcinoma), cell line was cultured in Dulbecco's modified Eagle's medium low glucose (Gibco, 21885025), Huh7 (hepatocellular carcinoma), HCT-116 (colorectal carcinoma), PANC-1 (prancreatic carcinoma) and A375 (malignant melanoma) cell lines were cultured in Dulbecco's modified Eagle's medium (Dutscher, L0103). MOLM-14 (acute myeloid leukemia) cell line was maintained in MEM alpha medium (Gibco, 22561-021). 786-0 (renal adenocarcinoma) cell lines were maintained in RPMI 1640 medium (Dutscher, L0498).
Cell viability was measured using the CellTiter-Glo® luminescent cell viability assay as described by the manufacturer (Promega, Ref G7571) using an Infinite F200Pro luminometer (Tecan). Briefly, for adherent cells, cells were plated onto 96-well plates (white with clear bottom) in 90 μL of media per well and were allowed to grow overnight before the assay. For cells growing in suspension, cells were plated onto 96-well plates 1 h before the assay.
Compounds were resuspended in H2O or DMSO and added at different concentrations to each well, and cell cultures were incubated for 72 h. Each diluent (H2O or DMSO) were used as a control, and all compounds were tested in a constant percentage of H2O or DMSO. On the day of the reading, plates are equilibrated 30 min at room temperature before the addition of 100 μL of CellTiter-Glo® and luminescence was measured using an Infinite F200Pro (Tecan). % cell viability were expressed as a percentage of the signal obtained for cell cultures treated with diluent. EC50 values were determined as the dose of compound required to reduce luminescent values to 50% of the signal obtained for cell cultures treated with diluent. The experimental data were analyzed using a computer program, Graphpad Prism v5 (GraphPad Software, Inc. La Jolla, Calif.). All points were at least done in duplicate.

On to `N#Cc1c(NCc2ccc(Cl)cc2)nc2ccccc2c1N1CCC(N2CCOCC2)C1` (centres unmarked) [Compound 150CN, 2-(4-chloro-benzylamino)-3-cyano-4-(3-morpholino-pyrrolidin-1-yl)quinoline], for which the viability at 4 µM in experiment [1] stood at 109%; in experiment [2], 97.9%; in experiment [3], 99.5%; in experiment [4] it was 93.8%; in experiment [5] it was 96.1%; in experiment [6], 100%. Further, the viability at 4 µM in experiment [7] (PANC-1, 4 μM) was determined as 101%. Besides, the viability at 10 µM in experiment [1] was 114%; in experiment [2], 96.8%; in experiment [3], 95.1%; in experiment [4] it was 90.4%; in experiment [5], 91.4%; in experiment [6], 103%. The viability at 10 µM in experiment [7] (PANC-1, 10 μM) came out at 101%.
As for `CC(C)(C)NC1CCN(c2c(C#N)c(Nc3ccc(Cl)cc3)nc3ccccc23)CC1` [Compound 3258CN, 2-(4-chlorophenylamino)-3-cyano-4-[4-(tert-butylamino)piperidin-1-yl]quinoline], the viability at 4 µM was 79.8% in experiment [1]; 9.7% in experiment [2]; 0.7% in experiment [3]; 73.8% in experiment [4]; 4.4% in experiment [5]; 44.3% in experiment [6]. Also, the viability at 10 µM in experiment [1] was found to be 1%; in experiment [2], 0.8%; in experiment [3], 0.6%; in experiment [4], 1.8%; in experiment [5], 0.7%; in experiment [6] it was 0.8%. The EC50 in experiment [1], in experiment [2], in experiment [3], in experiment [4], in experiment [5] and in experiment [6] was 0.5 to 5 µM each time.
As for `N#Cc1c(NCc2ccc(Cl)cc2)nc2ccccc2c1N1CCC(Oc2cccc(F)c2)C1` (centres unmarked) [Compound 3340CN, 2-(4-chlorobenzylamino)-3-cyano-4-[3-(3-fluorophenoxy)pyrrolidin-1-yl]quinoline], the viability at 4 µM came to 96% in experiment [1]; 95.9% in experiment [2]; 101% in experiment [3]; 85.6% in experiment [4]; 65.7% in experiment [5]; 98.9% in experiment [6]. Moreover, the viability at 10 µM stood at 97.7% in experiment [1]; 90.8% in experiment [2]; 86.3% in experiment [3]; 39.9% in experiment [4]; 36.4% in experiment [5]; 90.8% in experiment [6].
Regarding `CC(C)(C)NC1CCN(c2c(F)c(NCc3ccc(Cl)cc3)nc3ccccc23)CC1` [Compound 348, 2-(4-chlorobenzylamino)-3-fluoro-4-[4-(tert-butylamino)piperidin-1-yl]quinoline Hydrochloride Salt], the EC50 is 0.5 to 5 µM in experiment [1]; 0.5 to 5 µM in experiment [2]; 0.5 to 5 µM in experiment [3]; 5 to 10 µM in experiment [4]; 0.5 to 5 µM in experiment [5]; 0.5 to 5 µM in experiment [6].
`CC(C)CN(Cc1ccc(Cl)cc1)c1cc(N2CCC(NC(C)(C)C)CC2)c2ccccc2n1` [Compound 220, 2-(N-4-chlorobenzyl-N-isobutylamino)-4-[4-(tert-butylamino)-piperidin-1-yl]-quinoline]: the viability at 4 µM came to 78.9% in experiment [1]; 76.3% in experiment [2]; 60.9% in experiment [3]; 81.5% in experiment [4]; 74.6% in experiment [5]; 79.6% in experiment [6]. Besides, the viability at 10 µM in experiment [1] came out at 52.6%; in experiment [2] it was 0.3%; in experiment [3], 0.3%; in experiment [4] it was 0.3%; in experiment [5], 0.4%; in experiment [6] it was 31%.
As to `Clc1ccc(CNc2cc(N3CCC(Oc4cnccn4)CC3)c3ccccc3n2)cc1` [Compound 2958, 2-(4-chlorobenzylamino)-4-[4-(pyrazin-2-yloxy)piperidin-1-yl]quinoline hydrochloride], the EC50 is 0.5 to 5 µM in experiment [1]; 5 to 10 µM in experiment [2]; 5 to 10 µM in experiment [3]; 0.5 to 5 µM in experiment [4]; 5 to 10 µM in experiment [5]; 0.5 to 5 µM in experiment [6].
As for `COc1ccc(OC2CCN(c3c(C#N)c(NCc4ccc(Cl)cc4)nc4ccccc34)C2)cc1` (centres unmarked) [Compound 3334CN, 2-(4-chlorobenzylamino)-3-cyano-4-[3-(4-methoxyphenoxy)pyrrolidin-1-yl]quinoline], the viability at 4 µM in experiment [1] amounted to 105%; in experiment [2], 93.2%; in experiment [3], 92.8%; in experiment [4], 89.9%; in experiment [5], 93.6%; in experiment [6], 97.7%. In addition, the viability at 10 µM in experiment [1] was determined as 96.5%; in experiment [2], 90%; in experiment [3], 88.6%; in experiment [4] it was 94.4%; in experiment [5], 91.2%; in experiment [6], 89.1%.
Take `Clc1ccc(CNc2cc(N3CC[C@@H](Oc4ccccn4)C3)c3ccccc3n2)cc1` [Compound 3026, (3R) 2-(4-chlorobenzylamino)-4-[3-(pyridin-2-yloxy)pyrrolidin-1-yl]quinoline hydrochloride]: the EC50 in experiment [1], in experiment [2], in experiment [3], in experiment [4], in experiment [5] and in experiment [6] was 0.5 to 5 µM in each case.
For the compound `COC(=O)c1c(NCc2ccc(Cl)cc2)nc2ccccc2c1N1CCC(NC(C)(C)C)CC1` [Compound 354, methyl 4-(4-(tert-butylamino)piperidin-1-yl)-2-(4-chlorobenzylamino) quinoline-3-carboxylate], the EC50 in experiment [1] was 0.5 to 5 µM; in experiment [2], 0.5 to 5 µM; in experiment [3] it was 0.5 to 5 µM; in experiment [4], 0.5 to 5 µM; in experiment [5] it was 0.5 to 5 µM; in experiment [6], 5 to 10 µM.

These data come from patent US10577362B2, “Substituted 2, 4-diamino-quinoline derivatives for use in the treatment of proliferative diseases” (GENOSCIENCE PHARMA, priority 2016, dated 2020).
